≈ marks a conversion by molar mass, not a printed value.
Experiments:
Format in all cases: cell-based
[1] = system: H. influenzae ATCC 43095; test: In vitro antibacterial activity, MIC by microbroth dilution method (CLSI method), test bacteria symbol A; conditions: Haemophilus influenzae, ATCC43095, read-out: MIC (minimum inhibitory concentration), test bacteria A
Protocol: (§1) In vitro antibacterial activities of the compounds of the present invention against various test bacteria were measured according to the microbroth dilution method (CLSI method). As Comparative agent 1, clarithromycin was used, and the results for typical exemplary compounds are shown as MIC values (minimum inhibitory concentration, μg/ml) in Table 19.

[2] = system: S. pneumoniae ATCC 49619; test: In vitro antibacterial activity, MIC by microbroth dilution method (CLSI method), test bacteria symbol B; conditions: Streptococcus pneumoniae, ATCC49619, read-out: MIC (minimum inhibitory concentration), test bacteria B
Protocol: as §1

[3] = system: S. pneumoniae ATCC 700904; test: In vitro antibacterial activity, MIC by microbroth dilution method (CLSI method), test bacteria symbol C; conditions: Streptococcus pneumoniae, ATCC700904, read-out: MIC (minimum inhibitory concentration), test bacteria C
Protocol: as §1

SMILES | MIC [1] [µg/mL] | MIC [2] [µg/mL] | MIC [3] [µg/mL]
CC[C@H]1OC(=O)[C@H](C)[C@@H](O[C@H]2C[C@@](C)(OC)[C@@H](O)[C@H](C)O2)[C@H](C)[C@@H](O[C@@H]2O[C@H](C)C[C@H](N(C)C)[C@H]2O)[C@](C)(OC)C[C@@H](C)C(=O)[C@H](C)[C@@H](O)[C@]1(C)O [Comparative agent 1, clarithromycin, reference compound] | 4 (≈ 5.35 µM) | 0.03 (≈ 0.0401 µM) | > 128
CO[C@@]1(C)C[C@@H](C)[C@H](O)[C@H](C)N2C[C@@H](COc3cccc(C(C)(C)C)c3)[C@H](C2)OC(=O)C(C)(Cl)C(=O)[C@H](C)[C@H]1O[C@@H]1O[C@H](C)C[C@H](N(C)C)[C@H]1O (stereo partly drawn) [Example522] | 16 (≈ 21.6 µM) | 8 (≈ 10.8 µM) | > 16
CO[C@]1(C)C[C@H](O[C@H]2[C@H](C)[C@@H](O[C@@H]3O[C@H](C)C[C@H](N(C)C)[C@H]3O)[C@@](C)(OC)C[C@@H](C)[C@H](O)[C@H](C)N3C[C@@H](COCc4ccccc4)[C@H](C3)OC(=O)[C@@H]2C)O[C@@H](C)[C@@H]1O [Example523] | 4 (≈ 4.86 µM) | 0.12 (≈ 0.146 µM) | > 128
CO[C@]1(C)C[C@H](O[C@H]2[C@H](C)[C@@H](O[C@@H]3O[C@H](C)C[C@H](N(C)C)[C@H]3O)[C@@](C)(OC)C[C@@H](C)[C@H](O)[C@H](C)N3CCC[C@@H](C3)OC(=O)[C@@H]2C)O[C@@H](C)[C@@H]1O [Example525] | 0.5 (≈ 0.697 µM) | 0.25 (≈ 0.349 µM) | > 128
